Laboratory results as given in ChEMBL document CHEMBL4177632 (Bioorg Med Chem, 2017).

Tests used:
[1] = biological target: Aldo-keto reductase family 1 member A1 (Rattus norvegicus, UniProt P51635); experiment: Inhibition of ALR1 in Wistar rat kidney assessed as reduction in NADPH consumption preincubated for 1 min followed by substrate addition measured after 4 mins by spectrophotometric analysis
[2] = biological target: T1, Aldo-keto reductase family 1 member B1 (Rattus norvegicus, UniProt P07943); experiment: Inhibition of ALR2 in Wistar rat eye lens assessed as reduction in NADPH consumption preincubated for 1 min followed by D,L-glyceraldehyde addition measured after 4 mins by spectrophotometric analysis
[3] = biological target: T2, Aldo-keto reductase family 1 member B1 (Homo sapiens, UniProt P15121); experiment: Inhibition of recombinant human AKR1B1 using D,L-glyceraldehyde as substrate
[4] = biological target: T2, Aldo-keto reductase family 1 member B1; experiment: Uncompetitive inhibition of recombinant human AKR1B1 using D,L-glyceraldehyde as substrate
[5] = biological target: Aldo-keto reductase family 1 member B10 (Homo sapiens, UniProt O60218); experiment: Inhibition of recombinant human AKR1B10
[6] = biological target: T1, Aldo-keto reductase family 1 member B1; experiment: Uncompetitive inhibition of ALR2 in Wistar rat eye lens assessed as reduction in NADPH consumption preincubated for 1 min followed by D,L-glyceraldehyde addition measured after 4 mins by spectrophotometric analysis

Sequence of Aldo-keto reductase family 1 member A1 (P51635 whole entry, looked up): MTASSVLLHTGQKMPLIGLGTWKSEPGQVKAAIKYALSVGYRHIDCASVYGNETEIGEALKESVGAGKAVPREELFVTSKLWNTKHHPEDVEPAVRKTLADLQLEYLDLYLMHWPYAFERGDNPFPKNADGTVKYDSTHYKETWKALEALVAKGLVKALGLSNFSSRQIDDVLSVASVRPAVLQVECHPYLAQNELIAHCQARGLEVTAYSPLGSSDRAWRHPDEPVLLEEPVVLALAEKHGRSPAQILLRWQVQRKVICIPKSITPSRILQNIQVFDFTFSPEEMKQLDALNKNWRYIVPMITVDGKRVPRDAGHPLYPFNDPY
Sequence of Aldo-keto reductase family 1 member B10 (O60218 whole entry): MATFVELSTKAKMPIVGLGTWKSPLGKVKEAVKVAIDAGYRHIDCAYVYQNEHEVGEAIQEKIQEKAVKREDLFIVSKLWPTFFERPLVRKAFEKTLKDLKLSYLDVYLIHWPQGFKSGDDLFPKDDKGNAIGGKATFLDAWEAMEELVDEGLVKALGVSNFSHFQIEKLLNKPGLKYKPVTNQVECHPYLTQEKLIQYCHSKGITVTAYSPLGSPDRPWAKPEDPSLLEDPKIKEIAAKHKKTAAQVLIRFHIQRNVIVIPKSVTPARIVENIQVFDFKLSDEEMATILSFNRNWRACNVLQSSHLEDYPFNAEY

SMILES	IC50 [1] [nM]	IC50 [2] [nM]	IC50 [3] [nM]	Ki [4] [nM]	IC50 [5] [nM]	Ki [6] [nM]
Cc1c(C=O)c2ccccc2n1CC(=O)O	11800	340	–	–	–	–
CC(C)N1CCc2c(c3ccccc3n2CC(=O)O)C1	> 100000	34200	–	–	–	–
CC(=O)c1c(C)n(CC(=O)O)c2ccccc12	11200	169	–	–	–	–
CCOC(=O)N1CCc2c(c3cc(C(=O)O)ccc3n2CC(=O)O)C1	4840	12.7	–	–	–	–

Second part, the compound after the results:

IC50 [1] [nM]	IC50 [2] [nM]	IC50 [3] [nM]	Ki [4] [nM]	IC50 [5] [nM]	Ki [6] [nM]	SMILES
21900	20.5	–	–	–	–	CC(=O)N1CCc2c(c3ccccc3n2CC(=O)O)C1
9980	12.6	83.5	66.1	9430	16.9	CCOC(=O)N1CCc2c(c3cc(OC)ccc3n2CC(=O)O)C1
7540	57.5	–	–	–	–	O=C(O)Cn1c2c(c3ccccc31)CN(C(=O)C1CC1)CC2
